“And” between values parts separate entries of the source, which are not always exact repeats. Equal values may be shown once. Read-outs that look alike come from different tables or passages of the source.
Experiments:
SARS-CoV-2 USA-WA1/2020 [1] = assay: microbe, parasite or virus in culture; type: cell-based
[2] = tested on: SARS-CoV-2 USA/NYU-VC-003/2020; assay: microbe, parasite or virus in culture; type: cell-based
SARS-CoV-2 USA-WA1/2020 [3] = assay: Time-of-drug-addition assay in A549+ACE2 cells; type: cell-based; details: 12 hpi
SARS-CoV-2 USA-WA1/2020 [4] = type: cell-based; details: for SARS-CoV-2 infectious titers in apical washes: 10 μM basolateral, washes in 12 h increments up to 72 h; for number of SARS-CoV-2-N-expressing infected cells in HAEC: 10 μM, 72 h endpoint, immunofluorescence
[5] = tested on: polarized human airway epithelial cultures (HAEC)
BCi-NS1.1 cells = details: dose range up to 10 μM, 48 hours
SARS-CoV-2 = details: cited from earlier work
coronavirus 3CL^pro = details: cited from earlier work
COVID-19 = details: patients with more advanced infection, intravenous ref 55; cited from earlier work
in vitro = details: human
[6] = Severe acute respiratory syndrome coronavirus 2, A549-ACE2

Structure (SMILES)	protection of A549+ACE2 cells from ring syncytia formation (CPE) (SARS-CoV-2 USA-WA1/2020 [1])	protection of A549+ACE2 cells from virus-induced CPE (SARS-CoV-2 USA-WA1/2020 [1])	EC50 [2]	EC90 [2]	minimum treatment dose that led to undetectable infection levels (SARS-CoV-2 USA-WA1/2020 [3]) [µM]	SARS-CoV-2 infectious titers in apical washes (SARS-CoV-2 USA-WA1/2020 [4])	number of SARS-CoV-2-N-expressing infected cells in HAEC (SARS-CoV-2 USA-WA1/2020 [4])	CC50 (A549+ACE2 cells) [nM]	adverse effects on morphology of HAEC (histology) [5]	trans-epithelial resistance (TEER) over time [5]	ATP levels as a measure of cell viability (BCi-NS1.1 cells)	EC50 (SARS-CoV-2 USA-WA1/2020 [1])	also measured
COc1cccc2[nH]c(C(=O)N[C@@H](CC(C)C)C(=O)N[C@@H](C[C@@H]3CCNC3=O)C(=O)CO)cc12 [PF-00835231]	fully protected	fully protected	184 nM and 326 nM	591 nM and 1170 nM	3	viral titers below the limit of detection at most time points	number of infected cells significantly reduced	> 10000	Neither drug caused measurable adverse effects on the morphology	did not observe this trend	did not detect a decrease in ATP		change in antiviral efficacy when blocking MDR1 activity (SARS-CoV-2 USA-WA1/2020 [1]): no changes in antiviral efficacy; change in antiviral efficacy when blocking MDR1 activity (SARS-CoV-2 USA-WA1/2020 [4]): no changes in antiviral efficacy; effect of chemical inhibition of MDR1 on antiviral efficacy (SARS-CoV-2; Vero E6 cells ref 9, 14): significantly increased; EC50 (SARS-CoV-2; Vero E6 cells ref 9): 270 nM; inhibition of 3CL^pro protease activity (coronavirus 3CL^pro): potent inhibition
CC(C)C[C@H](NC(=O)OCc1ccccc1)C(=O)N[C@@H](CC1CCNC1=O)C(O)S(=O)(=O)[O-].[Na+] (some centres unmarked) [GC-376]		unable to protect cells from virus-induced CPE	529 nM	2730 nM	10			> 10000				623 nM and 696 nM	EC90 (SARS-CoV-2 USA-WA1/2020 [1]): 4550 nM and 5250 nM; EC50 (SARS-CoV-2; Vero E6 cells ref 11): 900 nM
CCC(CC)COC(=O)[C@H](C)N[P@](=O)(OC[C@H]1O[C@@](C#N)(c2ccc3c(N)ncnn23)[C@H](O)[C@@H]1O)Oc1ccccc1 [remdesivir]	fully protected		238 nM		10	viral titers below the limit of detection at most time points	number of infected cells significantly reduced		Neither drug caused measurable adverse effects on the morphology	negatively impacted TEER over time, albeit not statistically significantly	caused a reduction in ATP levels compared to carrier control, albeit not statistically significantly	238 nM	EC50 (SARS-CoV-2 USA-WA1/2020 [1]; [6]): 442 nM; EC50 [2, 6]: 283 nM; EC90 [2, 6]: 589 nM; patients with benefit (COVID-19): 68%; CC50 (in vitro): > 10000 nM
